According to patent publication US20190119282A1, “IMIDAZOPYRIDAZINES USEFUL AS INHIBITORS OF THE PAR-2 SIGNALING PATHWAY” (Vertex Pharmaceuticals Incorporated, priority 2013, published 2019):

Assays:
[1] = target: T1, PAR2 (HT-29 cells, SLIGKV activation) (Homo sapiens, UniProt P55085); experiment: Ca FLIPR TETRA assay, ANTAGONIST mode, stimulation with 8 μM SLIGKV; format: cell-based; conditions: HT-29 cells, stimulation with 8 μM SLIGKV
T1 construct: host or cells: HT-29 cells
T1 sequence (P55085 26-397): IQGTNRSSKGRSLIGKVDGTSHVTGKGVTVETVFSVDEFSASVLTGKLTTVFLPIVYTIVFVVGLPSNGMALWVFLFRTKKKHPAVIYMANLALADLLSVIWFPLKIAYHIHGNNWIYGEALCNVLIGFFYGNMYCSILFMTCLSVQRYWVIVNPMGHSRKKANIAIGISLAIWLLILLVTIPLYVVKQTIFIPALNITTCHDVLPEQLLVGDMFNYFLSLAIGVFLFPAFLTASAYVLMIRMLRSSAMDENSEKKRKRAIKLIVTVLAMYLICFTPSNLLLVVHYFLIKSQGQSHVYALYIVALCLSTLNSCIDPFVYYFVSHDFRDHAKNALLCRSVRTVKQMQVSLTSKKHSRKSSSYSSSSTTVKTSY
Summary of the method: (§1)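 Antagonist-mode FLIPR Tetra Ca2+ readout: after 30 min r.t. compound pre-incubation, HT-29 cells are challenged with trypsin (3.1 U/mL final), SLIGKV (8 μM), thrombin (1 U/mL) or UTP (0.6 μM). Cells were plated overnight in 1% FBS medium and dye-loaded with Calcium 5; an initial read checks compound agonism.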

[2] = target: T2, PAR2 (HT-29 cells, trypsin activation) (Homo sapiens, UniProt P55085); experiment: Ca FLIPR TETRA assay, ANTAGONIST mode, stimulation with 3.1 U/mL trypsin; format: cell-based; conditions: HT-29 cells, stimulation with 3.1 U/mL trypsin
T2 construct: host or cells: HT-29 cells
T2 sequence (P55085 26-397): T1 sequence (P55085 26-397)
Summary of the method: as §1

[3] = test system: Thrombin-stimulated Ca2+ response in HT-29 cells; experiment: Ca FLIPR TETRA assay, ANTAGONIST mode, stimulation with 1 U/mL Thrombin; format: cell-based, human; conditions: Homo sapiens, HT-29 cells, stimulation with 1 U/mL Thrombin
Summary of the method: as §1

[4] = test system: UTP-stimulated Ca2+ response in HT-29 cells; experiment: Ca FLIPR TETRA assay, ANTAGONIST mode, stimulation with 0.6 μM UTP; format: cell-based, human; conditions: Homo sapiens, HT-29 cells, stimulation with 0.6 μM UTP
Summary of the method: as §1

SMILES | IC50 [1] [µM] | IC50 [2] [µM] | IC50 [3] [µM] | IC50 [4] [µM] | IC50 ([1]; antagonist mode) [µM] | IC50 ([2]; antagonist mode) [µM] | IC50 ([3]; antagonist mode) [µM] | IC50 ([4]; antagonist mode) [µM]
CC(C)c1cc(C2=CCCCC2)nn2cc(C(=O)N3CCN(C(=O)C4(O)CCC4)CC3(C)C)nc12 [Compound I-40, [6-(Cyclohexen-1-yl)-8-isopropyl-imidazo[1,2-b]pyridazin-2-yl]-[4-(1-hydroxycyclobutanecarbonyl)-2,2-dimethyl-piperazin-1-yl]methanone] | 0.072 | 0.37 | 24 | 17 |  |  |  | 
CC(C)c1cc(-c2ccc(F)cc2)nn2cc(C(=O)N3CCN(C(=O)c4cccnc4)CC3(C)C)nc12 [Compound I-309] |  |  |  |  | 0.0175 | 0.019 | > 1 | > 1
CC(C)C[C@@H](O)C(=O)N1CCN(C(=O)c2cn3nc(-c4ccc(F)cc4)cc(C(C)C)c3n2)C[C@@H]1C [Compound I-105] | 0.0004 | 0.0008 | 10 | 8.8 |  |  |  | 
Cc1ccc(-c2cc(C(C)C)c3nc(C(=O)N4CCN(C(=O)c5nc[nH]n5)CC4(C)C)cn3n2)cc1F [Compound I-336] |  |  |  |  | 0.005 | 0.0028 | > 1 | > 1
Cc1cc(C(=O)N2CCN(C(=O)c3cn4nc(-c5ccc(F)c(C)c5)cc(C(C)(C)C)c4n3)C(C)(C)C2)[nH]n1 [Compound I-382] |  |  |  |  | 0.0006 | 0.0007 | > 1 | > 1
CC(C)c1cc(-c2ccc(Cl)cc2)nn2cc(C(=O)N3CCN(C(=O)[C@H]4C[C@@H](C(=O)O)C4)CC3(C)C)nc12 [Compound I-553] |  |  |  |  | 0.024 | 0.0495 | > 1 | > 1
O=C(c1cn2nc(-c3ccc(F)cc3)cc(C(F)(F)F)c2n1)N1CCN(CCn2ccnc2)CC1 [Compound I-56] | 23 | > 50 | > 50 | > 50 |  |  |  | 
CC(C)c1cc(-c2ccc(F)cc2)nn2cc(C(=O)N3CCN(C(=O)c4cccnn4)CC3(C)C)nc12 [Compound I-307] |  |  |  |  | 0.0528 | 0.042 | > 1 | > 1
Cc1ccc(-c2cc(C(C)(C)C)c3nc(C(=O)N4CCN(C(=O)c5ccccn5)CC4(C)C)cn3n2)cc1F [Compound I-425] |  |  |  |  | 0.0015 | 0.0012 | > 1 | > 1
CC(C)c1cc(-c2ccc(F)cc2)nn2cc(C(=O)N3CCN(C(=O)C4(O)CCOCC4)CC34COC4)nc12 [Compound I-26, [6-(4-fluorophenyl)-8-isopropyl-imidazo[1,2-b]pyridazin-2-yl]-[8-(4-hydroxytetrahydropyran-4-carbonyl)-2-oxa-5,8-diazaspiro[3.5]nonan-5-yl]methanone] | 4.4 | 9.1 | 28 | 31 |  |  |  | 
Cc1ccc(-c2cc(C(C)C)c3nc(C(=O)N4CCN(C(=O)c5ncccn5)CC4(C)C)cn3n2)cc1F [Compound I-373] |  |  |  |  | 0.0065 | 0.0081 | > 1 | > 1
O=C(c1cn2nc(-c3ccc(F)cc3)cc(C(F)(F)F)c2n1)N1CCCCC1CO (stereo not drawn) [Compound I-47] | 3.1 | 7.5 | 16 | 32 |  |  |  | 
Cc1cc(-c2cc(C(C)C)c3nc(C(=O)N4CCN(C(=O)c5ccn[nH]5)CC4(C)C)cn3n2)ccc1F [Compound I-261] |  |  |  |  | 0.0035 | 0.0065 | > 1 | > 1
CC(O)C(=O)N1CCN(C(=O)c2cn3nc(-c4ccc(F)cc4)cc(C(C)C)c3n2)C(C)(C)C1 (stereo not drawn) [Compound I-175] | 0.023 | 0.06 | 41 | 34 |  |  |  | 
CCc1cc(-c2ccc(F)cc2)nn2cc(C(=O)N3CCN(C(=O)OC(C)(C)C)[C@@H](C)C3)nc12 [Compound I-3, tert-Butyl (2S)-4-[8-ethyl-6-(4-fluorophenyl)imidazo[1,2-b]pyridazine-2-carbonyl]-2-methyl-piperazine-1-carboxylate] | 0.16 | 0.825 | 18 | 16 |  |  |  | 
CC(C(=O)NC1CC1)N1CCN(C(=O)c2cn3nc(-c4ccc(F)cc4)cc(C(F)(F)F)c3n2)CC1 (stereo not drawn) [Compound I-55] | 0.95 | 3.1 | > 50 | > 50 |  |  |  | 
CC(C)(C)C1CC(c2ccc(F)cc2)=Nn2cc(C(=O)N3CCNC(=O)C3(C)C)nc21 (stereo not drawn) [Compound I-446] |  |  |  |  | 0.056 | 0.104 | > 1 | > 1
CC(C)(C)c1cc(-c2ccc(C(F)(F)F)cc2)nn2cc(C(=O)N3CCN(C(=O)c4ccn[nH]4)CC3(C)C)nc12 [Compound I-401] |  |  |  |  | 0.0021 | 0.0015 | > 1 | > 1

SMILES | IC50 [1] [µM] | IC50 [2] [µM] | IC50 [3] [µM] | IC50 [4] [µM] | IC50 ([1]; antagonist mode) [µM] | IC50 ([2]; antagonist mode) [µM] | IC50 ([3]; antagonist mode) [µM] | IC50 ([4]; antagonist mode) [µM]
CC(C)c1cc(-c2ccc(F)cc2)nn2cc(C(=O)N3CCOCC3(C)C)nc12 [Compound I-120] | 0.13 | 1 | 20 | 24 |  |  |  | 
Cc1ccc(-c2cc(C(C)(C)C)c3nc(C(=O)N4CCN(C(=O)c5ncccn5)CC4(C)C)cn3n2)cc1F [Compound I-426] |  |  |  |  | 0.0017 | 0.0018 | > 1 | > 1
CCc1cc(-c2ccc(F)cc2)nn2cc(C(=O)N3CCN(C(=O)C(C)(C)O)CC3(C)C)nc12 [Compound I-161] | 0.2 | 0.33 | 140 | 72 |  |  |  | 
CC(C)c1cc(-c2ccc(F)c(Cl)c2)nn2cc(C(=O)N3CCN(C(=O)[C@H]4C[C@H](O)C4)CC3(C)C)nc12 [Compound I-505] |  |  |  |  | 0.012 | 0.023 | > 1 | > 1
CC(C)(C)c1cc(-c2ccc(F)cc2)nn2cc(C(=O)N3CCN(CC#N)C(=O)C3(C)C)nc12 [Compound I-267] |  |  |  |  | 0.0014 | 0.002 | 0.56 | > 1
Cc1ccc(-c2cc(C(C)C)c3nc(C(=O)N4CCN(C(=O)c5ccn[nH]5)CC4(C)C)cn3n2)cc1 [Compound I-255] |  |  |  |  | 0.0036 | 0.0038 | > 1 | > 1
Cc1c[nH]nc1C(=O)N1CCN(C(=O)c2cn3nc(-c4ccc(F)cc4)cc(C(C)C)c3n2)C(C)(C)C1 [Compound I-302] |  |  |  |  | 0.0103 | 0.013 | 1.1 | 0.9
O=C(c1cn2nc(-c3ccc(F)cc3)cc(C(F)(F)F)c2n1)N1CCCCC1c1ccccc1 (stereo not drawn) [Compound I-71] | 0.95 | 0.68 | 43 | > 50 |  |  |  | 
CC(C)(C)c1cc(-c2ccccc2F)nn2cc(C(=O)N3CCNC(=O)C3(C)C)nc12 [Compound I-473] |  |  |  |  | 0.015 | 0.0255 | 0.475 | 0.39
CC(=O)N1CCN(C(=O)c2cn3nc(-c4ccc(F)cc4)cc(C(C)C)c3n2)C(C)(C)C1 [Compound I-512] |  |  |  |  | 0.0235 | 0.053 | > 1 | > 1
CC(C)(C)c1cc(-c2ccc(F)cc2F)nn2cc(C(=O)N3CCNC(=O)C3(C)C)nc12 [Compound I-472] |  |  |  |  | 0.0062 | 0.013 | > 1 | 0.82
Cc1cc(-c2cc(C(C)C)c3nc(C(=O)N4CCN(C(=O)C(C)(C)O)CC4(C)C)cn3n2)ccc1F [Compound I-223] |  |  |  |  | 0.0163 | 0.0267 | > 1 | > 1
CC(C)(O)CN1CCN(C(=O)c2cn3nc(-c4ccc(F)cc4)cc(C(C)(C)C)c3n2)C(C)(C)C1=O [Compound I-225] |  |  |  |  | 0.0013 | 0.0025 | 0.23 | 0.23
CCOCCC(=O)N1CCN(C(=O)c2cn3nc(-c4ccc(F)cc4)cc(C(C)C)c3n2)C[C@@H]1C [Compound I-143] | 0.041 | 0.29 | 22 | 21 |  |  |  | 
CC(C)(C)c1cc(-c2ccc(F)cc2)nn2cc(C(=O)N3CCN(C(=O)c4nnn[nH]4)CC3(C)C)nc12 [Compound I-296] |  |  |  |  | 0.032 | 0.0447 | > 1 | > 1
Cc1ccc(-c2cc(C(C)(C)C)c3nc(C(=O)N4CCN(c5c[nH]c(C)n5)C(=O)C4(C)C)cn3n2)cc1 [Compound I-368] |  |  |  |  | 0.0052 | 0.0068 | > 1 | > 1
CC(C)(CO)c1cc(-c2ccc(F)cc2)nn2cc(C(=O)N3CCNC(=O)C3(C)C)nc12 [Compound I-189] |  |  |  |  | 0.4 | 0.417 | > 1 | > 50
CC(C)c1cc(-c2ccc(C(F)F)cc2)nn2cc(C(=O)N3CCN(C(=O)c4ccn[nH]4)CC3(C)C)nc12 [Compound I-293] |  |  |  |  | 0.0066 | 0.0094 | > 1 | > 1
